Assays:
Male CD-1 mice = assay: Psychostimulant (amphetamine)-induced hyperactivity in mice (Example 93); settings: mouse
hKv3.2 = molecular target: T1, hKv3.2 (Homo sapiens, UniProt Q96PR1); assay: IonWorks Quattro assay, secondary analysis of activation time constant (Tauact); format: cell-based; settings: for acts as positive or negative modulator of Kv3.1 and/or Kv3.2: classification from effect on Tauact; for effect on the value of Tauact compared to the vehicle control: vehicle DMSO 0.5%
T1 construct: expressed in transfected cells; host or cells: CHO-K1
T1 sequence (Q96PR1 1-638): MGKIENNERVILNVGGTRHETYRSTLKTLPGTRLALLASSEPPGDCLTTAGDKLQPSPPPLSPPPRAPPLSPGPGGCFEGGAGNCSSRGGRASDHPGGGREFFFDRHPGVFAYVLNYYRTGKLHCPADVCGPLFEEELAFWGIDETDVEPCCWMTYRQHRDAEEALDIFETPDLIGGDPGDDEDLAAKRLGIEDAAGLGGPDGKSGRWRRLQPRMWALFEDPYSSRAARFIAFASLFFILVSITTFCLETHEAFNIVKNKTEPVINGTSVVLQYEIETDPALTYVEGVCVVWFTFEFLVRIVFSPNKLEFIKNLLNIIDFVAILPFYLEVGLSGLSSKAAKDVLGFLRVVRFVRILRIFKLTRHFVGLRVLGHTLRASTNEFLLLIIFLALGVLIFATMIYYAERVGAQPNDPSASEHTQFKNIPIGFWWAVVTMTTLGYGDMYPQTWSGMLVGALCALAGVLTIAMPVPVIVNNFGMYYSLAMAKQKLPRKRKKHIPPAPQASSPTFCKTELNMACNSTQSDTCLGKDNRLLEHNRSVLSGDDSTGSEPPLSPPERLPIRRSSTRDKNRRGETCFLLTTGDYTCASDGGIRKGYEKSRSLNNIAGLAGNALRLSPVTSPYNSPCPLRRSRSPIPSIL
Procedure: A stable cell line expressing human Kv3.2 channels (hKv3.2) was created by transfecting Chinese Hamster Ovary (CHO)-K1 cells with a pCIH5-hKv3.2 vector. Cells were cultured in DMEM/F12 medium supplemented by 10% Foetal Bovine Serum, 1× non-essential amino acids (Invitrogen) and 500 ug/ml of Hygromycin-B (Invitrogen). Cells were grown and maintained at 37° C. in a humidified environment containing 5% CO2 in air.
The day of the experiment, cells were removed from the incubator and the culture medium removed. Cells were washed with 5 ml of Dulbecco's PBS (DPBS) calcium and magnesium free and detached by the addition of 3 ml Versene (Invitrogen, Italy) followed by a brief incubation at 37° C. for 5 minutes. The flask was tapped to dislodge cells and 10 ml of DPBS containing calcium and magnesium was added to prepare a cell suspension. The cell suspension was then placed into a 15 ml centrifuge tube and centrifuged for 2 min at 1200 rpm. After centrifugation, the supernatant was removed and the cell pellet re-suspended in 4 ml of DPBS containing calcium and magnesium using a 5 ml pipette to break […] up the pellet. Cell suspension volume was then corrected to give a cell concentration for the assay of approximately 3 million cells per ml.
Experiments were conducted at room temperature using IonWorks Quattro™ planar array electrophysiology technology (Molecular Devices Corp.) with PatchPlate™ PPC. Stimulation protocols and data acquisition were carried out using a microcomputer (Dell Pentium 4). Planar electrode hole resistances (Rp) were determined by applying a 10 mV voltage step across each well. These measurements were performed before cell addition. […] Following this, amphotericin-B solution was added to the intracellular face of the electrode to achieve intracellular access. Cells were held at −70 mV. Leak subtraction was conducted in all experiments by applying 50 ms hyperpolarizing (10 mV) prepulses to evoke leak currents followed by a 20 ms period at the holding potential before test pulses. From the holding potential of −70 mV, a first test pulse to −15 mV was applied for 100 ms and following a further 100 ms at −70 mV, a second pulse to 40 mV was applied for 50 ms. Cells were then maintained for a further 100 ms at −100 mV and then a voltage ramp from −100 mV to 40 mV was applied over 200 ms. In all experiments, the test pulses protocol was performed in the absence (pre-read) and presence (post-read) of the test compound. Pre- and post-reads were separated by the compound addition followed by a 3 minute incubation.
The magnitude of the effect of a compound can be determined from the time constant (Tauact) obtained from a non-linear fit, using the equation given below, of the rise in Kv3.1 or Kv3.2 currents following the start of the depolarising voltage pulse. Y=(Y0−Ymax)*exp(−K*X)+Ymax
Where: • Y0 is the current value at the start of the depolarising voltage pulse; • Ymax is the plateau current;
K is the rate constant, and Tauact is the activation time constant, which is the reciprocal of K.

[1] = tested on: fast-firing interneurons in the somatosensory cortex; assay: Recordings from fast-firing interneurons driven by high frequency current pulse trains (FIG. 2); format: cell-based, mouse; settings: 1 microM; trains of depolarising current pulses at 100, 200, 300 Hz; n=6
Description: Kv3.1 and Kv3.2 channels must activate and deactivate very rapidly in order to allow neurons to fire actions potentials at high frequency (Rudy and McBain, 2001, Trends in Neurosciences 24, 517-526). Slowing of activation will delay the onset of action potential repolarisation; slowing of deactivation will lead to hyperpolarising currents that reduce the excitability of the neuron and delay the time before the neuron can fire a further action potential. Together these two slowing effects will lead to a reduction rather than a facilitation of the neurons ability to fire at high frequencies. […] This latter effect can be observed from recordings made from “fast-firing” interneurons in the cortex of rat brain, using electrophysiological techniques, in vitro (FIG. 2).
The neurons are induced to fire at high frequencies by trains of high frequency depolarising current pulses at 100, 200, and 300 Hz. The ability of the neuron to fire an action potential on each pulse is determined. […] In the absence of drug (closed circles, n=9), the neurons maintained a spike probability of 1 up to 300 Hz.

[2] = tested on: parvalbumin-positive interneurons in the somatosensory cortex; assay: Firing of parvalbumin-positive interneurons in somatosensory cortex slices, in vitro (Example 90); format: cell-based, mouse; settings: TEA 0.5 mM vs control slices; at least 1 hour incubation
[3] = tested on: high voltage-activated potassium currents in MNTB neurons (presumed to be mediated by Kv3.1 channels); assay: Potassium currents recorded from MNTB neurons, in vitro (Example 91); format: cell-based, mouse; settings: TEA 1 mM; voltage steps to +40 mV
Procedure: Male CBA/Ca mice (aged 12-16 days) were used in these experiments (in accordance with the UK Animals Scientific Procedures Act, 1986). Brain slices containing the medial nucleus of the trapezoid body (MNTB) were prepared as described previously (Brew and Forsythe, 2005).
Chemicals and reagents were purchased from Sigma, (Poole, UK) unless otherwise noted. EXAMPLE 19 was dissolved in DMSO and diluted in ACSF to the required concentration.
Recordings from identified MNTB neurons were conducted as previously described (Brew and Forsythe, 2005). Slices was placed in a superfusion chamber on an inverted microscope stage and continuously perfused with gassed (95% O2-5% CO2) ACSF at a rate of 1 ml min^−1 at room temperature. Whole-cell recordings were made from visually identified MNTB neurons using an […] amplifier (Molecular Devices, Union City, Calif., USA). Patch solution comprised (in mM) potassium gluconate (97.5), KCl (32.5), Hepes (40), EGTA (5), MgCl2 (1), Na2 phosphocreatin (5), pH 7.2 with KOH. Pipettes had resistances of 3-5 MΩ and series resistances were 6-10 MΩ (compensated by 70%, 10 μs lag). Access resistance was frequently monitored and the recording discarded if increases were more than 2 MΩ. […]

SMILES: CC(N)Cc1ccccc1 (stereo not shown) [Amphetamine, amphetamine, reference compound]
- Total Distance Travelled (cm) (Male CD-1 mice; amphetamine 2.0 mg/kg i.p. alone, 60 minutes, mean ± sem): 16304 ± 3309 cm
- effect on total distance travelled (Male CD-1 mice; amphetamine alone 2 mg/kg i.p.): large and significant increase

SMILES: CC[C@@]1(C)NC(=O)N(c2ccc(Oc3ccc(C)c(OC)c3)nc2)C1=O [Example 30, (5R)-5-ethyl-5-methyl-3-(6-{[4-methyl-3-(methyloxy)phenyl]oxy}-3-pyridinyl)-2,4-imidazolidinedione]
- acts as positive or negative modulator of Kv3.1 and/or Kv3.2 (hKv3.2): positive modulators

SMILES: CC[C@H]1NC(=O)N(c2ccc(Oc3ccc(C#N)cc3C3CC3)nc2)C1=O [Example 70, 3-cyclopropyl-4-({5-[(4R)-4-ethyl-2,5-dioxo-1-imidazolidinyl]-2-pyridinyl}oxy)benzonitrile]
- acts as positive or negative modulator of Kv3.1 and/or Kv3.2 (hKv3.2): positive modulators

SMILES: CC[C@H]1NC(=O)N(c2ccc(Oc3ccc(C#N)cc3C(C)(C)C)nc2)C1=O [Example 71, 3-(1,1-dimethylethyl)-4-({5-[(4R)-4-ethyl-2,5-dioxo-1-imidazolidinyl]-2-pyridinyl}oxy)benzonitrile]
- acts as positive or negative modulator of Kv3.1 and/or Kv3.2 (hKv3.2): negative modulators
- effect on the value of Tauact compared to the vehicle control (hKv3.2; hKv3.2): markedly increase

SMILES: CC[C@H]1NC(=O)N(c2ccc(Oc3ccc(C#N)c(C4CC4)c3)nc2)C1=O [Example 76, 2-cyclopropyl-4-({5-[(4R)-4-ethyl-2,5-dioxo-1-imidazolidinyl]-2-pyridinyl}oxy)benzonitrile]
- acts as positive or negative modulator of Kv3.1 and/or Kv3.2 (hKv3.2): positive modulators
- Tauact mean (hKv3.2; hKv3.2, step to −15 mV, compound 3.1 μM (concentration giving ~0.3 nA current)): 7.6 ms

SMILES: CC[C@H]1NC(=O)N(c2ccc(Oc3ccc(C#N)c(C(C)C)c3)nc2)C1=O [Example 77, 4-({5-[(4R)-4-ethyl-2,5-dioxo-1-imidazolidinyl]-2-pyridinyl}oxy)-2-(1-methylethyl)benzonitrile]
- acts as positive or negative modulator of Kv3.1 and/or Kv3.2 (hKv3.2): positive modulators

SMILES: CCc1cc(Oc2ccc(N3C(=O)N[C@H](CC)C3=O)cn2)ccc1C#N [Example 78]
- acts as positive or negative modulator of Kv3.1 and/or Kv3.2 (hKv3.2): positive modulators

SMILES: CC[C@H]1NC(=O)N(c2ccc(Oc3ccc(C#N)c(OC(C)C)c3)nc2)C1=O [Example 80, 4-({5-[(4R)-4-ethyl-2,5-dioxo-1-imidazolidinyl]-2-pyridinyl}oxy)-2-[(1-methylethyl)oxy]benzonitrile]
- acts as positive or negative modulator of Kv3.1 and/or Kv3.2 (hKv3.2): positive modulators

SMILES: CC[C@H]1NC(=O)N(c2ccc(Oc3ccc(C#N)c(OC(F)(F)F)c3)nc2)C1=O [Example 82, 4-({5-[(4R)-4-ethyl-2,5-dioxo-1-imidazolidinyl]-2-pyridinyl}oxy)-2-[(trifluoromethyl)oxy]benzonitrile]
- acts as positive or negative modulator of Kv3.1 and/or Kv3.2 (hKv3.2): positive modulators

SMILES: CC[C@H]1NC(=O)N(c2ccc(Oc3cccc4c3C3(CC3)CO4)nc2)C1=O [Example 87, (5R)-5-ethyl-3-[6-(spiro[1-benzofuran-3,1′-cyclopropan]-4-yloxy)-3-pyridinyl]-2,4-imidazolidinedione]
- ability of neurons to fire an action potential on each pulse (spike probability) [1]: unable to follow trains at the highest frequency
- acts as positive or negative modulator of Kv3.1 and/or Kv3.2 (hKv3.2): negative modulators
- effect on the value of Tauact compared to the vehicle control (hKv3.2; hKv3.2): markedly increase

SMILES: CC1(C)NC(=O)N(c2ccc(Oc3cccc4c3C3(CC3)CO4)nc2)C1=O [Example 88, 5,5-dimethyl-3-[6-(spiro[1-benzofuran-3,1′-cyclopropan]-4-yloxy)-3-pyridinyl]-2,4-imidazolidinedione]
- acts as positive or negative modulator of Kv3.1 and/or Kv3.2 (hKv3.2): negative modulators
- effect on the value of Tauact compared to the vehicle control (hKv3.2; hKv3.2): markedly increase

SMILES: CC[N+](CC)(CC)CC [TEA, tetraethylammonium, reference compound]
- maximal frequency of action potential firing in response to step currents [2]: lower maximal frequency
- amplitude of outward high voltage-activated potassium currents [3]: significantly reduced
